Measured values published in patent publication US20110092463A1, “COMBINATION FOR USE IN THE TREATMENT OF INFLAMMATORY DISORDERS” (priority 2008, published 2011).

Tested on: human macrophage cell-line MonoMac-6 (MM6)
Assay: PMA-induced release of tumor necrosis factor (TNF) from MonoMac-6 cells, Human TNF-α ELISA
Format: cell-based
Settings: n=2; for TNF concentration as % of the untreated PMA-stimulated control MM6 cells: 48 hours, PMA 10 ng/mL five hours, mean; for mean TNF concentration after PMA stimulation: 48 hours treatment, then PMA 10 ng/mL five hours, untreated control 75.3 pg/mL
Protocol: Cells from the human macrophage cell-line MonoMac-6 (MM6) (Ziegler-Heitbrock et al, Int. J. Cancer, 41, 456 (1988)) were cultured (37° C./5% CO2) in RPMI-1640 medium supplemented with 1 mM sodium pyruvate, 1× nonessential amino acids, 10 μg/mL insulin, 1 mM oxalacetic acid, 100 units/mL penicillin, 100 μg/mL streptomycin and 10% (v/v) fetal bovine serum. At the start of the experiment, MM6 cells were seeded in 96-well plates at a density of 1×10^5 cells/mL (200 μL per well). The MM6 cells were treated (incubation conditions as above) with indicated final concentrations of the test drugs for 48 hours prior stimulation with phorbol-12-myristate-13-acetate (PMA; Sigma-Aldrich, Stockholm, Sweden) followed by measurement of PMA-induced release of tumor necrosis factor (TNF) (see below for details). To stimulate formation and release of TNF, the MM6 cells were incubated (37° C./5% CO2) for five hours (in RPMI-1640 with 10% fetal bovine serum with supplements as above) with PMA at a final concentration of 10 ng/mL. After spinning down the cells after the different MM6 incubations/stimulations (see above and below), the concentrations of TNF in the supernatants were quantitated using Human TNF-α ELISA Kit from Mabtech (Nacka, Sweden) according to instructions supplied by the manufacturer. Stock solutions of pemirolast (potassium salt; purchased from American Custom Chemicals Corporation, San Diego, USA) and losartan (potassium salt; purchased from AK Scientific, Inc., Mountain View, Calif., USA) were made in sterile saline. […] However, after five hours of PMA stimulation, the mean TNF concentration in the supernatants of untreated MM6 cells was 75.3 pg/mL (n=2).

[1] = 0.1 μM of each drug (alone or in combination)
[2] = 1 μM of each drug (alone or in combination)
[3] = 10 μM of each drug (alone or in combination)
[4] = 100 μM of each drug (alone or in combination)

| Structure (SMILES) | TNF concentration as % of the untreated PMA-stimulated control MM6 cells [1] [%] | mean TNF concentration after PMA stimulation (0.1 μM test drug) [pg/mL] | TNF concentration as % of the untreated PMA-stimulated control MM6 cells [2] [%] | mean TNF concentration after PMA stimulation (1 μM test drug) [pg/mL] | TNF concentration as % of the untreated PMA-stimulated control MM6 cells [3] [%] | mean TNF concentration after PMA stimulation (10 μM test drug) [pg/mL] | TNF concentration as % of the untreated PMA-stimulated control MM6 cells [4] [%] | mean TNF concentration after PMA stimulation (100 μM test drug) [pg/mL] |
| --- | --- | --- | --- | --- | --- | --- | --- | --- |
| CCCCc1nc(Cl)c(CO)n1Cc1ccc(-c2ccccc2-c2nn[nH]n2)cc1 [losartan] | 98 | 73.8 | 90 | 67.5 | 99 | 74.5 | 119 | 89.8 |
| Cc1cccn2c(=O)c(-c3nnn[nH]3)cnc12 [pemirolast] | 88 | 66.5 | 85 | 64.0 | 72 | 54.3 | 96 | 72.2 |
